The text below walks through data of US7432365B1, “DNA molecules encoding beta clamp proteins of gram positive bacteria” (priority 1998, dated 2008).

One test has as its target Gram positive PolC (Bacillus subtilis, UniProt P13267). The settings on record: known from the literature; cited from earlier work.
A further test concerns DnaE polymerase. In words: Inhibition of synthesis on SSB coated primed M13mp18 ssDNA by TMAU. In kind it is biochemical, S. pyogenes. The procedure:
(§1) To test DnaE for function with τδδ′ and β, replication reactions contained 70 ng (25 fmol) of 30-mer singly primed M13 mp18 ssDNA, 0.82 μg of S. pyogenes SSB, and 3.3 ng-300 ng of DnaE (25 fmol −2.3 pmol) in 23.5 μl of 20 mM Tris-HCl (pH 7.5), 4% glycerol, 0.1 mM EDTA, 5 mM dithiothreitol (DTT), 40 μg/ml BSA, 2 mM ATP, 8 mM MgCl2, and 60 μM each of dGTP and dCTP. When present, reactions included 43.3 ng of β and 10 ng of τδδ′. Reactions were preincubated for 3 min at 37° C., and then NaCl was added to 40 mM followed by another 2 min at 37° C. DNA synthesis was initiated upon addition of 1.5 μl of 1.5 mM dATP, 0.5 mM [α^32P]-dTTP (specific activity 2,000-4,000 cpm/pmol). Aliquots of 25 μl were removed at the indicated times and quenched with an equal volume (25 μl) of 1% SDS, 40 mM EDTA. One-half of the quenched reaction was analyzed for total deoxynucleotide incorporation using DE81 filter paper and the other half was analyzed on a 0.8% neutral agarose gel. The effect of TMAU was also examined, in which 100 μM TMAU in DMSO (2% DMSO final concentration) was present. In this case, replication was allowed to proceed for 1 min before being quenched with […] of 1% SDS, 40 mM EDTA.
(§2) Gram positive PolC is known to be inhibited by the antibiotic hydroxyphenylaza-uracil (“HPUra”) and its derivatives. In FIG. 21F, the PolC·τδδ′, β and DnaE were tested for inhibition of synthesis on SSB coated primed M13mp18 ssDNA by an HPUra derivative, trimethylanilino-uracil (“TMAU”).

A further test addresses T1, PolC·τδδ′, β (Streptococcus pyogenes, UniProt P0C0B7).
T1 construct: made in house; host or cells: E. coli BL21(DE3) RecA-, pET11a (β: pET16b)
The test is described as above. In kind it is biochemical, S. pyogenes. The settings on record: 100 μM TMAU, 2% DMSO, 1 min. The procedure: as §1, §2

A further test concerns the target T2, S. aureus Pol III-L (Staphylococcus aureus, UniProt P0C1P9).
T2 construct: made in house; host or cells: E. coli BL21(DE3), pET11PolC (β: pET16b)
In words: PolydA-oligodT replication assay, stimulation by beta. In kind it is biochemical. The settings on record: linear polydA-oligodT template. The procedure: PolydA-oligodT was prepared as follows. […] OligodT35 was synthesized by Oligos etc.

A further test has as its target E. coli Pol III core (Escherichia coli, UniProt P10443). The settings on record: linear polydA-oligodT template. From the text: DNA synthesis was quantitated using DE81 paper as described in Rowen et al., “Primase, the DnaG Protein of Escherichia coli. An Enzyme Which Starts DNA Chains,” J. Biol. Chem., 253:758-764 (1979), which is hereby incorporated by reference.

T2 sequence (P0C1P9 whole entry): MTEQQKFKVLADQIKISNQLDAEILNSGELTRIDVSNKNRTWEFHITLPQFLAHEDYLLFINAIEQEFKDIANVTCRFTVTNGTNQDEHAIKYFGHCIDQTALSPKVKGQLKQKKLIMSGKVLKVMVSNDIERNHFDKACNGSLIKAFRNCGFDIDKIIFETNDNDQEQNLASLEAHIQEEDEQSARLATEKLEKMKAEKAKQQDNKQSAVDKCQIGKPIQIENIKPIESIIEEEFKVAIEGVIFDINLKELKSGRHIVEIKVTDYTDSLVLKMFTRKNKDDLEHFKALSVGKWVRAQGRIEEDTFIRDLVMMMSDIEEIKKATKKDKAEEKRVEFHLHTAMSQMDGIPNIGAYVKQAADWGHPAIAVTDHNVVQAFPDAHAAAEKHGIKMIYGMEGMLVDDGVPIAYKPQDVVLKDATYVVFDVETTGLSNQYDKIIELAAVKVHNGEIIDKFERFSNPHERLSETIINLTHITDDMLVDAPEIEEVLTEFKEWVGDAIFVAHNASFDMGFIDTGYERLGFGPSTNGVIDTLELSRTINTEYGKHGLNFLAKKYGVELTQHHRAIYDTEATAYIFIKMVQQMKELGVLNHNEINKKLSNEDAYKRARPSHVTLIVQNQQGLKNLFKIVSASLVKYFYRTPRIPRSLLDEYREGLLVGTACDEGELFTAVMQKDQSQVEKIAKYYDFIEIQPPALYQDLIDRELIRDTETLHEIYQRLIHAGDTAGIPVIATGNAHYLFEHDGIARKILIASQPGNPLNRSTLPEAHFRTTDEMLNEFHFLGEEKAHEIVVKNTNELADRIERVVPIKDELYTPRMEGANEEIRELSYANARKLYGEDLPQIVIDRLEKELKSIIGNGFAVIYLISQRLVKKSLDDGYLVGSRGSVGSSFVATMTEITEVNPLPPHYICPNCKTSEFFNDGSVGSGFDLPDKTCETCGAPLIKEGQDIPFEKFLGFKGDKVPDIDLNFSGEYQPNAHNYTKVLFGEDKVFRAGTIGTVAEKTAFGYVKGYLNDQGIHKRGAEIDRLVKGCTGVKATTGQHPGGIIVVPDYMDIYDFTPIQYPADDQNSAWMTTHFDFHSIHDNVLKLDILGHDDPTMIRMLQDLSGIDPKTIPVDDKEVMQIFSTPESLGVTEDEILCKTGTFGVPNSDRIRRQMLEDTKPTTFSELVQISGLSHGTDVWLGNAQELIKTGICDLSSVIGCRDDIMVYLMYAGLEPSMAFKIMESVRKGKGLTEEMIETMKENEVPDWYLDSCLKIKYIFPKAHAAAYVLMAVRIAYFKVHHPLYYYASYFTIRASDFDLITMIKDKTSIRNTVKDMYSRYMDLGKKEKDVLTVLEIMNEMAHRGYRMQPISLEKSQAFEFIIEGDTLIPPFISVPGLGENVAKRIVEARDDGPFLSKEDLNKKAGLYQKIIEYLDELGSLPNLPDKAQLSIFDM
T1 sequence (P0C0B7 whole entry D425A/L426T/C427Y/G428V/L429V/S430F): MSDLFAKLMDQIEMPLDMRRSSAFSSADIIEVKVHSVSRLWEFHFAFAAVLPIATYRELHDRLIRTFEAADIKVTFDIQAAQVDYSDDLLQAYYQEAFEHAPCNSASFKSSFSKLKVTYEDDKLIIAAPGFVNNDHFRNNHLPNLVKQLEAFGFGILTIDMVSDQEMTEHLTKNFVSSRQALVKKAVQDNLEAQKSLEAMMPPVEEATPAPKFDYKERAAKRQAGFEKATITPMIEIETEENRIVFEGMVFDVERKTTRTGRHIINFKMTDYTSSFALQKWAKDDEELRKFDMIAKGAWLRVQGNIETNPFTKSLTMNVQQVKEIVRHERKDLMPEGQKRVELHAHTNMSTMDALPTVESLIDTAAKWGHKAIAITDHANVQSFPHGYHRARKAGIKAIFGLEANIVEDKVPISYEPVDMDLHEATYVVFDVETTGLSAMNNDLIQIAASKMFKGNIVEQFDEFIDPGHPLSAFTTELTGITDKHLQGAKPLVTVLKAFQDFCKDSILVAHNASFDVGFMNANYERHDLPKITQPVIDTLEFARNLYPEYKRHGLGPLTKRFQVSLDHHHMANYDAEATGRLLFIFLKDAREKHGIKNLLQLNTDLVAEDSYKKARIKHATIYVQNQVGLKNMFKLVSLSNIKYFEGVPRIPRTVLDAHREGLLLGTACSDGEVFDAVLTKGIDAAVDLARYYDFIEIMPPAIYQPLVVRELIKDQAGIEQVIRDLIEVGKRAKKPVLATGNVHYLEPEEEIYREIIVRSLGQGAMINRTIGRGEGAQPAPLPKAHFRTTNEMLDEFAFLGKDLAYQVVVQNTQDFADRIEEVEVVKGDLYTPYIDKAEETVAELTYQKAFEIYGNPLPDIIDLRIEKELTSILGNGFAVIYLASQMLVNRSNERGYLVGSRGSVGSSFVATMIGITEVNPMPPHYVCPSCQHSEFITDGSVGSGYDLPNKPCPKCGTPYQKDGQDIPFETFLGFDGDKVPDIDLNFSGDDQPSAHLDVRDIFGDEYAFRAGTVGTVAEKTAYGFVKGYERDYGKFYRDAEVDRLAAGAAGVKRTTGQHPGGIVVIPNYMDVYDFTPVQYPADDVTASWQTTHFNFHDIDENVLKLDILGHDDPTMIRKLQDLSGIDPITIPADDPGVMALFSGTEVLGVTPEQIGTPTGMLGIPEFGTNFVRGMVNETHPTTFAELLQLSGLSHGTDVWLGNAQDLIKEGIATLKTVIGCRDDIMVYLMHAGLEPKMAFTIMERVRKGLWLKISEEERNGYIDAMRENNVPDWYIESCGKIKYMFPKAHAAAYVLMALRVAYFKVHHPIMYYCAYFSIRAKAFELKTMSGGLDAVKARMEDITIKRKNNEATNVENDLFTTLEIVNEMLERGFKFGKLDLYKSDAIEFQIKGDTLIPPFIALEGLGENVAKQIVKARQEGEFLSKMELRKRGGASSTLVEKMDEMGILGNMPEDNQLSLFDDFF
Sequence of E. coli Pol III core (P10443 whole entry): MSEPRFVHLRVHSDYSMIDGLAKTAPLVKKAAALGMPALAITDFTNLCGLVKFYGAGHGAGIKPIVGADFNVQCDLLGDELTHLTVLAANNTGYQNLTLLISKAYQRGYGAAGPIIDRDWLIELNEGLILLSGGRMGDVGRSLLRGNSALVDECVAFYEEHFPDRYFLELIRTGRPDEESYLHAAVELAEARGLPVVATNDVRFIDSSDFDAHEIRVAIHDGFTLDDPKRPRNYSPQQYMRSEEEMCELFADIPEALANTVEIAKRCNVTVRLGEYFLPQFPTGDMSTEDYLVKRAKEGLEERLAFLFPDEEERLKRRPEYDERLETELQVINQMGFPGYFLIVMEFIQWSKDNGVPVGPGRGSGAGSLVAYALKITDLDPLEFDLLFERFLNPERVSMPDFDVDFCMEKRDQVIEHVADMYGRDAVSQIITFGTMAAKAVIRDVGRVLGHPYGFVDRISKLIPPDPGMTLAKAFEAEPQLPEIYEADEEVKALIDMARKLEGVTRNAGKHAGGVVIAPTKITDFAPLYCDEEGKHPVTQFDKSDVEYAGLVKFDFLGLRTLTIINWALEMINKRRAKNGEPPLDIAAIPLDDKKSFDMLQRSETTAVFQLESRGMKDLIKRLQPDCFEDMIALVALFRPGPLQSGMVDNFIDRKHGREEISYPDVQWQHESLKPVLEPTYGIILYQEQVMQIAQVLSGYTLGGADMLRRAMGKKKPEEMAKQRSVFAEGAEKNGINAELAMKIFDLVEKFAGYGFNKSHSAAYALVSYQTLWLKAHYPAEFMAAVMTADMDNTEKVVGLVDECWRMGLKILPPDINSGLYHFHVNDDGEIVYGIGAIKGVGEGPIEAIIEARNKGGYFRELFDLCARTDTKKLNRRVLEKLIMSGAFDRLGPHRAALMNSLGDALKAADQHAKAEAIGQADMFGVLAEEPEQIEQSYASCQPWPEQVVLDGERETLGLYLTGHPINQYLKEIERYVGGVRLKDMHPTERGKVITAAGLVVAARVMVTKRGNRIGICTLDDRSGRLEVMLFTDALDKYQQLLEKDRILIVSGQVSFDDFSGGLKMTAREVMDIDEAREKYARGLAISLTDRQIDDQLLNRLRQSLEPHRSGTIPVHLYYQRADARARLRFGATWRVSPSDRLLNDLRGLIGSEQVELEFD
Sequence of E. coli Pol III core (P03007 whole entry, further chain): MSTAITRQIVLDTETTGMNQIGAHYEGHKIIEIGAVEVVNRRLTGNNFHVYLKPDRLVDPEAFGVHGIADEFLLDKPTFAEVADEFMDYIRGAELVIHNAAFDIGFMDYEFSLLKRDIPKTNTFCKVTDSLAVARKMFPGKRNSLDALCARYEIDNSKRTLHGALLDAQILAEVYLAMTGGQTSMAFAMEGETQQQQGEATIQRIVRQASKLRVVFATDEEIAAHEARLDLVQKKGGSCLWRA
Sequence of E. coli Pol III core (P0ABS8 whole entry, further chain): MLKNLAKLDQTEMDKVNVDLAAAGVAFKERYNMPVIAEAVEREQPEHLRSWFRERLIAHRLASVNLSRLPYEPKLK

As to `O=c1cc(N=Nc2ccc(O)cc2)[nH]c(=O)[nH]1` [HPUra, hydroxyphenylaza-uracil], on Gram positive PolC, the “Inhibition of Gram positive PolC” value was “inhibited”.

As to `O=c1cc(Nc2ccc3c(c2)CCC3)[nH]c(=O)[nH]1` [TMAU, trimethylanilino-uracil], the “Inhibition of synthesis (formation of RFII product)” value with DnaE polymerase (100 μM TMAU, in the presence of τδδ′/β) is listed as “not affected”; in the test with DnaE polymerase (TMAU, in the absence of τδδ′/β (not shown)), “not affected”; on PolC·τδδ′, β, “prevented from forming the RFII product”.

B1: S. aureus beta: S. aureus beta subunit encoded by dnaN, SEQ. ID. No. 10, sliding clamp (protein)
chain: MMEFTIKRDYFITQLNDTLKAISPRTTLPILTGIKIDAKEHEVILTGSDSEISIEITIPKTVDGEDIVNISETGSVVLPGRFFVDIIKKLPGKDVKLSTNEQFQTLITSGHSEFNLSGLDPDQYPLLPQVSRDDAIQLSVKVLKNVIAQTNFAVSTSETRPVLTGVNWLIQENELICTATDSHRLAVRKLQLEDVSENKNVIIPGKALAELNKIMSDNEEDIDIFFASNQVLFKVGNVNFISRLLEGHYPDTTRLFPENYEIKLSIDNGEFYHAIDRASLLAREGGNNVIKLSTGDDVVELSSTSPEIGTVKEEVDANDVEGGSLKISFNSKYMMDALKAIDNDEVEVEFFGTMKPFILKPKGDDSVTQLILPIRTY
modifications: left off: small tags and cut ends
notes: ID; No. 10, sliding clamp
Take B1: the “Stimulation of polymerase DNA synthesis” value with S. aureus Pol III-L is 5-6 fold; in the test with E. coli Pol III core it was “about 5 fold”.
